Assay [1] addresses T1, human cloned CHRM5 receptor (Homo sapiens, UniProt P08912).
T1 construct: expressed in transfected cells; host or cells: CHO (M5_CHO)
T1 sequence (P08912 1-532): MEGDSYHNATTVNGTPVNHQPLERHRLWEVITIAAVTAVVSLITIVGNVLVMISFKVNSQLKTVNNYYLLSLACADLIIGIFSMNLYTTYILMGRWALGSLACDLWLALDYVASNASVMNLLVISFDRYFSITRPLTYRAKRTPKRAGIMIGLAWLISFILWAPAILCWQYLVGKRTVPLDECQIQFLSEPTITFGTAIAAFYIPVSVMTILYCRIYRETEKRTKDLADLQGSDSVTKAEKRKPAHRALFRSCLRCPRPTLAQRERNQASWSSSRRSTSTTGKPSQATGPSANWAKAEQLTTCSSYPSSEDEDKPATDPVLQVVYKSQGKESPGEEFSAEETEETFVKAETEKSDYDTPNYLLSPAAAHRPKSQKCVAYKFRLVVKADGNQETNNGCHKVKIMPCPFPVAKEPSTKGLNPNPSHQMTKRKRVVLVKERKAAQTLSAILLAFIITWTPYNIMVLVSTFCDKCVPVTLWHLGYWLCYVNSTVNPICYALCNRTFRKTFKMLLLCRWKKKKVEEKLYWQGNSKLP
Nature of the assay: CHRM5 Ca++ Flux Assay (M5_CHO cells, agonist mode). The class given is cell-based. Conditions: for M5 FDSS PA % / Emax: Percent Activity (PA) measured to EC100 of Carbachol; for pEC50: agonist mode, geometric mean if tested more than once, read-out: M5 FDSS EC50; for Emax: read-out: M5 FDSS PA %. The essentials: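 Agonist-mode calcium mobilisation: compounds, 11 concentrations in triplicate, applied to stable M3_CHO or M5_CHO cells loaded with Ca++ dye, fluorescence followed 3 min. Efficacy expressed against carbachol EC100; EC curves by four-parameter nonlinear regression, geometric mean across independent runs.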

Assay [2] has as its target T2, Cloned human M1 receptor (CHRM1) (Homo sapiens, UniProt P11229).
T2 construct: expressed in transfected cells; host or cells: HEK293
T2 sequence (P11229 1-460): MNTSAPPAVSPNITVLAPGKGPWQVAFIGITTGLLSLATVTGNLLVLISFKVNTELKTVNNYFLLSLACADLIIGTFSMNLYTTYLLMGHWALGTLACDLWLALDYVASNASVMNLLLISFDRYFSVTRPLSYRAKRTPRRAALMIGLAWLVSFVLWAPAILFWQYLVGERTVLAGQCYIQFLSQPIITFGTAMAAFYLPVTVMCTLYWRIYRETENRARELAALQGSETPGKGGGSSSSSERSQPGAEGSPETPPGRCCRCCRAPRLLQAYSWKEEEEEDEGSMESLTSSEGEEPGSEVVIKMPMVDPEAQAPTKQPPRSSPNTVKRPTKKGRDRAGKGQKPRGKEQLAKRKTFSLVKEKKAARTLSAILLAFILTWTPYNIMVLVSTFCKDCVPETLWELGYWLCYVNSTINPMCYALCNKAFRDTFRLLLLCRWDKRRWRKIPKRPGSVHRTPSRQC
Nature of the assay: CHRM1 Ca++ Flux Assay (HEK293 M1 cells, agonist mode). In kind it is cell-based. Conditions: for M1 FDSS PA % / Emax: Percent Activity (PA); for pEC50: geometric mean if tested more than once, read-out: M1 FDSS EC50; for Emax: read-out: M1 FDSS PA %. The essentials: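 In agonist mode, compound-induced intracellular Ca++ mobilization was recorded for 3 min by fluorescent imager. The cells were HEK293 stably expressing cloned human CHRM1, in Ca/Mg-free HBSS with 20 mM HEPES. Triplicate 11-point dose-responses were fitted by four-parameter regression and normalized to the carbachol EC100 response.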

pEC50: −log10 of the molar value.

As for `O[C@H]1CC[C@@H](c2ccc(F)cc2C2CCN([C@@H]3COC4(C3)CN(c3nnco3)C4)CC2)CC1` (single isomer, unassigned) [Example 3I, (1R,4s)-4-(2-(1-((S)-2-(1,3,4-oxadiazol-2-yl)-5-oxa-2-azaspiro[3.4]octan-7-yl)piperidin-4-yl)-4-fluorophenyl)cyclohexan-1-ol or (1S,4r)-4-(2-(1-((S)-2-(1,3,4-oxadiazol-2-yl)-5-oxa-2-azaspiro[3.4]octan-7-yl)piperidin-4-yl)-4-fluorophenyl)cyclohexan-1-ol], in assay [1], the “M5 FDSS PA %” value was 0% and the negative logarithm of the EC50 (pEC50) (in general, the EC50 on a negative log10 scale, so that one unit is a factor of ten) is under 4.60. Further, in assay [2], the “M1 FDSS PA %” value was found to be 76% and the pEC50 was 5.48.
With `Fc1ccc(O[C@@H]2CCOC2)c(C2CCN([C@@H]3COC4(C3)CN(c3nncs3)C4)CC2)c1` [Example 5H, (S)-7-(4-(5-fluoro-2-(((R)-tetrahydrofuran-3-yl)oxy)phenyl)piperidin-1-yl)-2-(1,3,4-thiadiazol-2-yl)-5-oxa-2-azaspiro[3.4]octane], in assay [1], the Emax amounted to 0% and the pEC50 is under 4.60. In addition, in assay [2], the Emax came to 67% and the pEC50 was 6.36.
With `c1ccc([C@@H]2CCOC2)c(C2CCN([C@@H]3COC4(C3)CN(c3nnco3)C4)CC2)c1` (single isomer, unassigned) [Example 3A, (S)-2-(1,3,4-oxadiazol-2-yl)-7-(4-(2-((S)-tetrahydrofuran-3-yl)phenyl)piperidin-1-yl)-5-oxa-2-azaspiro[3.4]octane or (S)-2-(1,3,4-oxadiazol-2-yl)-7-(4-(2-((R)-tetrahydrofuran-3-yl)phenyl)piperidin-1-yl)-5-oxa-2-azaspiro[3.4]octane], in assay [1], the “M5 FDSS PA %” value was found to be 0% and the pEC50 is under 4.60. In assay [2], the “M1 FDSS PA %” value was 85% and the pEC50 was 5.95.
As to `Fc1cc(OCC2COC2)c(C2CCN([C@@H]3COC4(C3)CN(c3ncco3)C4)CC2)cc1F` [Example 4O, (S)-7-(4-(4,5-difluoro-2-(oxetan-3-ylmethoxy)phenyl)piperidin-1-yl)-2-(oxazol-2-yl)-5-oxa-2-azaspiro[3.4]octane], in assay [1], the Emax was 0% and the pEC50 is under 4.60. In assay [2], the Emax is 63% and the pEC50 is 6.44.
For the compound `CC(C)(O)[C@H]1C[C@H](Oc2ccc(F)cc2C2CCN([C@@H]3COC4(C3)CN(c3nnco3)C4)CC2)C1` (single isomer, unassigned) [Example 2V, 2-((1S,3r)-3-(2-(1-((S)-2-(1,3,4-oxadiazol-2-yl)-5-oxa-2-azaspiro[3.4]octan-7-yl)piperidin-4-yl)-4-fluorophenoxy)cyclobutyl)propan-2-ol or 2-((1R,3s)-3-(2-(1-((S)-2-(1,3,4-oxadiazol-2-yl)-5-oxa-2-azaspiro[3.4]octan-7-yl)piperidin-4-yl)-4-fluorophenoxy)cyclobutyl)propan-2-ol], in assay [1], the “M5 FDSS PA %” value worked out at 0% and the pEC50 was under 4.60. Moreover, in assay [2], the “M1 FDSS PA %” value worked out at 31% and the pEC50 is 5.78.
Turning to `Fc1ccc(OC2COC2)c(C2CCN([C@@H]3COC4(C3)CN(c3ncco3)C4)CC2)c1` [Example 4A, (S)-7-(4-(5-fluoro-2-(oxetan-3-yloxy)phenyl)piperidin-1-yl)-2-(oxazol-2-yl)-5-oxa-2-azaspiro[3.4]octane], in assay [1], the Emax is 0% and the pEC50 was under 4.60. In assay [2], the Emax is 84% and the pEC50 was 6.63.
Regarding `Fc1ccc(OC2CCOCC2)c(C2CCN([C@@H]3COC4(C3)CN(c3nncs3)C4)CC2)c1` [Example 5J, (S)-7-(4-(5-fluoro-2-((tetrahydro-2H-pyran-4-yl)oxy)phenyl)piperidin-1-yl)-2-(1,3,4-thiadiazol-2-yl)-5-oxa-2-azaspiro[3.4]octane], in assay [1], the Emax is 0% and the pEC50 is under 4.60. In addition, in assay [2], the Emax was 6% and the pEC50 was 5.92.
Regarding `c1ccc(C2CCN([C@@H]3COC4(C3)CN(c3ncco3)C4)CC2)c(O[C@@H]2CCOC2)c1` [Example 4F, (S)-2-(oxazol-2-yl)-7-(4-(2-(((R)-tetrahydrofuran-3-yl)oxy)phenyl)piperidin-1-yl)-5-oxa-2-azaspiro[3.4]octane], in assay [1], the Emax was 0% and the pEC50 was under 4.60. Moreover, in assay [2], the Emax was 90% and the pEC50 was 6.27.
For the compound `OC[C@H]1C[C@H](Oc2ccc(F)cc2C2CCN([C@@H]3COC4(C3)CN(c3nnco3)C4)CC2)C1` (single isomer, unassigned) [Example 2II, ((1S,3r)-3-(2-(1-((S)-2-(1,3,4-oxadiazol-2-yl)-5-oxa-2-azaspiro[3.4]octan-7-yl)piperidin-4-yl)-4-fluorophenoxy)cyclobutyl)methanol or ((1R,3s)-3-(2-(1-((S)-2-(1,3,4-oxadiazol-2-yl)-5-oxa-2-azaspiro[3.4]octan-7-yl)piperidin-4-yl)-4-fluorophenoxy)cyclobutyl)methanol], in assay [1], the “M5 FDSS PA %” value is reported as 0% and the pEC50 is under 4.60. Also, in assay [2], the “M1 FDSS PA %” value is on record as 107% and the pEC50 is 5.39.
Take `Fc1cc(OCC2(F)COC2)c(C2CCN([C@@H]3COC4(C3)CN(c3ncco3)C4)CC2)cc1F` [Example 4P, (S)-7-(4-(4,5-difluoro-2-((3-fluorooxetan-3-yl)methoxy)phenyl)piperidin-1-yl)-2-(oxazol-2-yl)-5-oxa-2-azaspiro[3.4]octane]: in assay [1], the Emax was found to be 0% and the pEC50 was under 4.60. In assay [2], the Emax was determined as 89% and the pEC50 is 6.48.
On the same counts, the results for `Fc1ccc(O[C@H]2CCOC2)c(C2CCN([C@@H]3COC4(C3)CN(c3nncs3)C4)CC2)c1` [Example 5O, (S)-7-(4-(5-fluoro-2-(((S)-tetrahydrofuran-3-yl)oxy)phenyl)piperidin-1-yl)-2-(1,3,4-thiadiazol-2-yl)-5-oxa-2-azaspiro[3.4]octane] are 0%, under 4.60, 78% and 6.10.
On to `Fc1ccc(O[C@H]2CCCOC2)c(C2CCN([C@@H]3COC4(C3)CN(c3nnco3)C4)CC2)c1` (single isomer, unassigned) [Example 2R, (S)-7-(4-(5-fluoro-2-(((S)-tetrahydro-2H-pyran-3-yl)oxy)phenyl)piperidin-1-yl)-2-(1,3,4-oxadiazol-2-yl)-5-oxa-2-azaspiro[3.4]octane or (S)-7-(4-(5-fluoro-2-(((R)-tetrahydro-2H-pyran-3-yl)oxy)phenyl)piperidin-1-yl)-2-(1,3,4-oxadiazol-2-yl)-5-oxa-2-azaspiro[3.4]octane], for which, in assay [1], the “M5 FDSS PA %” value is recorded as 0% and the pEC50 was under 4.60. Further, in assay [2], the “M1 FDSS PA %” value came to 56% and the pEC50 is 6.07.
In the case of `C[C@H](Oc1ccc(F)cc1C1CCN([C@@H]2COC3(C2)CN(c2nnco2)C3)CC1)C1CCOCC1` (single isomer, unassigned) [Example 2Y, (S)-7-(4-(5-fluoro-2-((S)-1-(tetrahydro-2H-pyran-4-yl)ethoxy)phenyl)piperidin-1-yl)-2-(1,3,4-oxadiazol-2-yl)-5-oxa-2-azaspiro[3.4]octane or (S)-7-(4-(5-fluoro-2-((R)-1-(tetrahydro-2H-pyran-4-yl)ethoxy)phenyl)piperidin-1-yl)-2-(1,3,4-oxadiazol-2-yl)-5-oxa-2-azaspiro[3.4]octane], in assay [1], the “M5 FDSS PA %” value worked out at 13% and the pEC50 was 5.02. For the same compound, in assay [2], the “M1 FDSS PA %” value is 51% and the pEC50 was 4.97.

These data come from US11485742B2, “2-azaspiro[3.4]octane derivatives as M4 agonists” (NOVARTIS AG, priority 2019, dated 2022).
